Experimental findings from patent US20160000750A1, “COMBINATION OF EGCG OR METHYLATED EGCG AND A PDE INHIBITOR” (KYUSHU UNIVERSITY, NATIONAL UNIVERSITY CORPORATION, priority 2010, published 2016) are described below.

For assay [1], the system named is Toll-like receptor (TLR) 2. Kind of assay: TLR2 expression in RAW 264.7 by Western blotting. Format: cell-based, mouse. As to conditions: vardenafil 5 μM, EGCG 10 μM added after 3 hours, 24 hours, untreated = 100. As for the experimental part: (§1) A mouse macrophage cell line, RAW 264.7, was seeded in a 5-mL dish at 1×10^5 cells/mL and was pre-cultured in a DMEM medium supplemented with 1% FCS for 24 hours. Subsequently, vardenafil was added thereto at a concentration of 5 μM. After 3 hours, EGCG was added thereto at a concentration of 0 μM or 10 μM. After 24 hours, the cells were collected, and the expressions of Toll-like receptor (TLR) 2 and TLR 4 were measured by Western blotting.

In the next assay the test system is TLR 4. Put plainly: TLR4 expression in RAW 264.7 by Western blotting. It is filed as cell-based, mouse. As to conditions: vardenafil 5 μM, EGCG 10 μM added after 3 hours, 24 hours, untreated = 100. As for the experimental part:
as §1
For orientation: A western blot detects proteins with antibodies after separation by electrophoresis.

Structures are written as SMILES.

Consider `CCCc1nc(C)c2c(=O)[nH]c(-c3cc(S(=O)(=O)N4CCN(CC)CC4)ccc3OCC)nn12` [vardenafil], for which the “TLR2 expression level(%)” value in assay [1] was 112%. Besides, the “TLR4 expression level(%)” value in the assay on TLR 4 is given as 112%.
